This passage reports IC50 results from article PMC6156230, “Caspase-1 inhibition alleviates cognitive impairment and neuropathology in an Alzheimer’s disease mouse model” (Nature Communications, 2018).

Assay in all cases: fluorogenic AFC peptide substrate assay
Common to all, as to format: biochemical

One test deals with T1, human Casp5 (Homo sapiens, UniProt P51878).
T1 construct: recombinant caspase, commercial (BioVision)
T1 sequence (P51878 137-327): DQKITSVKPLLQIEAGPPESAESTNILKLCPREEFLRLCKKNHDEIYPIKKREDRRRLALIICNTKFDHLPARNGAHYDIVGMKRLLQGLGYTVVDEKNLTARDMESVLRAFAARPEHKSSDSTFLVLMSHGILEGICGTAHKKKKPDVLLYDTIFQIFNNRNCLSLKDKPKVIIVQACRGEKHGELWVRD
T1 sequence (P51878 347-434): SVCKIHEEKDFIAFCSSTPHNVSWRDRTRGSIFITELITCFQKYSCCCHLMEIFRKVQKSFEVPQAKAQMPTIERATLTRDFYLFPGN
Particulars: 10 µM Ac-WEHD-AFC, pH 7.2, 37 °C, 10 mM DTT.

A further test concerns the target T2, human Casp9 (Homo sapiens, UniProt P55211).
T2 construct: recombinant caspase, commercial (BioVision)
T2 sequence (P55211 1-315): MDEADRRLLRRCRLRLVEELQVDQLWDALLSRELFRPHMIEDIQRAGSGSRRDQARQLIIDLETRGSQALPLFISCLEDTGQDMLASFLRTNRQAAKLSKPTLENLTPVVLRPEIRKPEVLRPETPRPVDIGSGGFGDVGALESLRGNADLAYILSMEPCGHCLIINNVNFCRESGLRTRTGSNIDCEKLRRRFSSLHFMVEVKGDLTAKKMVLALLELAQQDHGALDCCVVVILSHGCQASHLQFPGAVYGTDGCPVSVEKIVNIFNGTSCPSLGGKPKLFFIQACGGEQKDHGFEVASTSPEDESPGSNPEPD
T2 sequence (P55211 331-416): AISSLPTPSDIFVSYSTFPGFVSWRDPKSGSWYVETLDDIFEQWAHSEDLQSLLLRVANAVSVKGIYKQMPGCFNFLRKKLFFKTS
Particulars: 10 µM Ac-LEHD-AFC, pH 7.2, 37 °C, 10 mM DTT.

In a further test the target is T3, human Casp1 (Homo sapiens, UniProt P29466).
T3 construct: recombinant caspase, commercial (BioVision)
T3 sequence (P29466 120-297): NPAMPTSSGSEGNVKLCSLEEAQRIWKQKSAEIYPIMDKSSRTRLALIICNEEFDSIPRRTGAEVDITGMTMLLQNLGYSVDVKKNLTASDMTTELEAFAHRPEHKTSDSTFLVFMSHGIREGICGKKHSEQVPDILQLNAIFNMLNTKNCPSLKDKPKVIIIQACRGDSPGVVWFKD
T3 sequence (P29466 317-404): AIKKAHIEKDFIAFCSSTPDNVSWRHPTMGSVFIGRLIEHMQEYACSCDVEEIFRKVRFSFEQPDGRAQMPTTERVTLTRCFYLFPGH

The target in another test is T4, mouse recombinant Casp1 (Mus musculus, UniProt P29452).
T4 construct: recombinant caspase, commercial
T4 sequence (P29452 119-296): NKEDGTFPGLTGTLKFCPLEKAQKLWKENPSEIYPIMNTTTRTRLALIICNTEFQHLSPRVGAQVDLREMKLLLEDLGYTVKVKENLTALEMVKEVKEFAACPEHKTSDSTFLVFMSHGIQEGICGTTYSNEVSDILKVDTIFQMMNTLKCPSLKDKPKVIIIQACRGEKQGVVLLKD
T4 sequence (P29452 315-402): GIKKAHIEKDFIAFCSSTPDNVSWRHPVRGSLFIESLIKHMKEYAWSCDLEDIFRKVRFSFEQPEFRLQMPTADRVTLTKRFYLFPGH

The target of another test is T5, human Casp10 (Homo sapiens, UniProt Q92851).
T5 construct: recombinant caspase, commercial (BioVision)
T5 sequence (Q92851 220-415): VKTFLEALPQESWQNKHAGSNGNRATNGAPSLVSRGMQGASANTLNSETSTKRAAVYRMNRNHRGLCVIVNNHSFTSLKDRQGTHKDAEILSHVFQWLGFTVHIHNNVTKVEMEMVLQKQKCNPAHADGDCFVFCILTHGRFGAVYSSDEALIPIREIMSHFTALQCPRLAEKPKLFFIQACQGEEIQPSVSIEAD
T5 sequence (Q92851 416-521): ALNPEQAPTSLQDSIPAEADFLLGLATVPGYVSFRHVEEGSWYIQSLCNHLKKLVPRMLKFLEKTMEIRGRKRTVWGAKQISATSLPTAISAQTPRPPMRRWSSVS
Particulars: 10 µM Ac-IETD-AFC, pH 7.2, 37 °C, 10 mM DTT.

A further test deals with T6, human Casp8 (Homo sapiens, UniProt Q14790).
T6 construct: recombinant caspase, commercial (BioVision)
Particulars: 10 µM Ac-IETD-AFC, pH 7.2, 37 °C, 10 mM DTT.

T6 sequence (Q14790 217-374): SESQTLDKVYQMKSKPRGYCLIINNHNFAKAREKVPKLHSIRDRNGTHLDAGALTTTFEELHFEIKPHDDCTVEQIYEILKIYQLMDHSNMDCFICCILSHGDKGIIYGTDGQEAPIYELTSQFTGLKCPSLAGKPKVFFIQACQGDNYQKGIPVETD
T6 sequence (Q14790 385-479): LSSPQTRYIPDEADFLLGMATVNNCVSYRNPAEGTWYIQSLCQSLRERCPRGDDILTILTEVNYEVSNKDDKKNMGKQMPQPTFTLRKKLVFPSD

Turning to `CC(C)(C)[C@H](NC(=O)c1ccc(N)c(Cl)c1)C(=O)N1CCC[C@H]1C(=O)N[C@H](C=O)CC(=O)O` [VRT-043198], the half-maximal inhibitory concentration (IC50) result against human Casp5 was “Casp5, Casp8, Casp9 and Casp10, which were inhibited in the nanomolar range in vitro”; at human Casp9, “Casp5, Casp8, Casp9 and Casp10, which were inhibited in the nanomolar range in vitro”; on human Casp1, 9.91 nM; at mouse recombinant Casp1 it was 18 nM; at human Casp10, “Casp5, Casp8, Casp9 and Casp10, which were inhibited in the nanomolar range in vitro”; against human Casp8, “Casp5, Casp8, Casp9 and Casp10, which were inhibited in the nanomolar range in vitro”.
In the case of `CCO[C@@H]1OC(=O)C[C@@H]1NC(=O)[C@@H]1CCCN1C(=O)[C@@H](NC(=O)c1ccc(N)c(Cl)c1)C(C)(C)C` [VX-765], the IC50 result on human Casp5 is “Casp5, Casp8, Casp9 and Casp10, which were inhibited in the nanomolar range in vitro”; against human Casp9 it was “Casp5, Casp8, Casp9 and Casp10, which were inhibited in the nanomolar range in vitro”; against human Casp10 it was “Casp5, Casp8, Casp9 and Casp10, which were inhibited in the nanomolar range in vitro”; on human Casp8, “Casp5, Casp8, Casp9 and Casp10, which were inhibited in the nanomolar range in vitro”.

As a reminder, the IC50 is the concentration that gives 50% inhibition.
